# Test results published in patent publication US8829021B2, “Treatment of pediatric tumors” (Sigma-Tau Industrie Farmaceutiche Riunite S.p.A., priority 2007, dated 2014).
# Where “and” joins values, the source holds several entries; their conditions need not be identical. Equal values may be shown once.
# What was measured:
# [1] = system: TE-671 (rhabdomyosarcoma); assay: In vivo antitumoral activity, TE-671 rhabdomyosarcoma xenograft; parameters: species or system nude athymic mice (human tumor xenograft); conditions: 30 mg/kg i.v., q4dx4
# Procedure: (§1) Exponentially growing tumor cells were injected s.c. into nude athymic mice. The number of tumor cells was previously chosen by a growth curve. […] Animals were housed under a light-dark cycle, keeping temperature and humidity constant. Parameters of the animal rooms were assessed as follows: 22±2° C. temperature, 55±10% relative humidity, about 15-20 filtered air changes/hour and 12 hour circadian cycle of artificial light (7 a.m., 7 p.m.). At request, the environmental conditions were monitored and the data are retained in Animal Housing Archives. Drinking water was supplied ad libitum. Each mouse was offered daily a complete pellet diet (GLP 4RF21, Mucedola) throughout the study. The analytical certificates of animal food and water are retained at Sigma-Tau premises. All animals were weighed before starting the experiment and were subdivided into the different dosage groups.
# (§2) Tumor growth was followed by biweekly measurements of tumor diameters with a Vernier caliper. Tumor volume (TV, mm^3) was calculated as: [length (mm)×width (mm)^2]/2, where the width and the length are the shortest and the longest diameters of each tumor, respectively.
# (§3) The efficacy of the drug treatment was assessed as tumor volume inhibition (TVI %) in treated versus control mice, calculated as: 100−[(mean tumor volume of treated animals/mean tumor volume of control animals)×100].
# [2] = system: PFSK (primitive neuroectodermal tumors/PNET); assay: In vivo antitumoral activity, PFSK primitive neuroectodermal tumor (PNET) xenograft; parameters: species or system nude athymic mice (human tumor xenograft); conditions: 30 mg/kg i.v., q4dx4
# Procedure: as §1, §2, §3
# [3] = system: SK-N-AS (neuroblastoma); assay: In vivo antitumoral activity, SK-N-AS neuroblastoma xenograft; parameters: species or system nude athymic mice (human tumor xenograft); conditions: SK-N-AS xenograft s.c. in nude mice; 30 mg/kg i.v., q4dx4
# Procedure: as §1, §2, §3
# [4] = system: human pediatric tumor xenograft models; assay: In vivo antitumoral activity on different pediatric tumor xenograft models (overall); parameters: species or system nude athymic mice (human tumor xenograft); conditions: all models, compared with CPT-11; 30 mg/kg i.v., q4dx4
# Procedure: (§4) The antitumor effect was evaluated against different human pediatric tumor models: SK-ND-AS (neuroblastoma); PSFK (primitive neuroectodermal tumors/PNET); TE-671 (rhabdomyosarcoma). ST 1968 was evaluated in comparison to CPT-11 (irinotecan) by intravenously delivery of 30 mg/10 ml/kg for ST1968 and 50 mg/10 ml/kg for CPT-11 according to the schedule q4dx4.
# (§5) Exponentially growing tumor cells were injected s.c. into nude athymic mice. The number of tumor cells was previously chosen by a growth curve. Mice were housed inside cages of makrolon (33.2×15×13 cm) with stainless steel cover-feed and sterilized and dust-free bedding cobs. Animals were housed under a light-dark cycle, keeping temperature and humidity constant. Parameters of the animal rooms were assessed as follows: 22±2° C. temperature, 55±10% relative humidity, about 15-20 filtered air changes/hour and 12 hour circadian cycle of artificial light (7 a.m., 7 p.m.). At request, the environmental conditions were monitored and the data are retained in Animal Housing Archives. Drinking water was supplied ad libitum. […]
# Tumor growth was followed by biweekly measurements of tumor diameters with a Vernier caliper. Tumor volume (TV, mm^3) was calculated as: [length (mm)×width (mm)^2]/2, where the width and the length are the shortest and the longest diameters of each tumor, respectively. […]
# [5] = Toxicity of the drug treatments in tumor-bearing mice; type: in vivo, nude athymic mice; conditions: treatment i.v., q4dx4
# Procedure: as §4, §5
# The toxicity of the drug treatments was determined as: body weight loss percent (% BWL max)=100−(mean BWday x/mean BWday 1×100), where BWx is the mean BW at the day of maximal loss during the treatment and BW1 is the mean BW on the 1st day of treatment.
smiles,measurement,setting,value
"CC[C@@]1(O)C(=O)OCc2c1cc1n(c2=O)Cc2c-1nc1ccccc1c2/C=N\OCCN [ST1968, 7-(2-amino)ethoxyiminomethylcamptothecin]",TVI % (tumor volume inhibition),"[1]; TE-671 xenograft s.c. in nude mice, 30 mg/kg",100% and 99%
same,complete responses (in words),[1]; rhabdomyosarcoma model,high rate of complete responses
same,TVI % (tumor volume inhibition),"[2]; PFSK xenograft s.c. in nude mice, 30 mg/kg",99% and 100%
same,complete responses (in words),[2]; PNET model,high rate of complete responses
same,TVI % (tumor volume inhibition),[3],98%
same,antitumor activity / complete tumor regressions (in words),[4],appreciable rate of complete tumor regressions in all models
same,tolerability / signs of acute or delayed toxicity (in words),[5],generally well tolerated by mice with no signs of acute or delayed toxicity
